Where two headings read alike, the source gives them in different places.
Key:
ddY mice = assay: Acute toxicity; format: in vivo; settings: 5 days
dopamine 2 (D2) receptor = target: T1, dopamine 2 (D2) receptor (Rattus norvegicus, UniProt P61169); assay: Affinity for dopamine 2 receptor ([3H]spiperone binding, synaptosome fraction of corpus striatum); parameters: species or system Wistar rat; settings: tritiated spiperone 0.2 nM, 37° C., 20 minutes, read-out: binding D2, inhibition constant (Ki value)
T1 construct: A synaptosome fraction was separated from corpus striatum; from tissue; host or cells: corpus striatum of Wistar rat, synaptosome fraction
Procedure: Experiment Example 1: Affinity for dopamine 2 receptor
A specific binding of dopamine 2 (D2) receptor was tested according to the method described in Eur. J. Pharmacol. 46, 377 (1977).
A synaptosome fraction was separated from corpus striatum of 9-10 weeks old Wistar rat, and suspended in 50 mM Tris-HCl buffer (pH 7.1) containing 120 mM sodium chloride, 5 mM potassium chloride, 2 mM calcium chloride, 1 mM magnesium chloride, 10 μM pargyline and 0.1% ascorbic acid for use in the test.
The test compound at several concentrations and tritiated spiperone (final concentration 0.2 nM) were added to the synaptosome suspension, and each mixture was reacted at 37° C. for 20 minutes. After the reaction, the reaction mixture was filtered with suction through a Whatman GF/B glass filter. The filter was washed with 50 mM Tris-HCl buffer (pH 7.7), and the radioactivity of the filter was measured by a liquid scintillation counter. Non-specific binding was determined in the presence of 10^-4 M(±)-sulpiride. The concentration necessary for 50% inhibition (IC50) was determined on a graph, and inhibition constant (Ki value) was calculated.

[1] = target: T2, serotonin 1A (5-HT1A) receptor (Rattus norvegicus, UniProt P19327); assay: Affinity for serotonin 1A receptor ([3H]8-OH-DPAT binding, crude synaptosome fraction of hippocampus); settings: tritiated 8-OH-DPAT 0.2 nM, pH 7.4, 37° C., 12 minutes, read-out: binding 5-HT1A, inhibition constant (Ki value)
T2 construct: A crude synaptosome fraction was separated from hippocampus; from tissue; host or cells: hippocampus of Wistar rat, crude synaptosome fraction
T2 sequence (P19327 1-422): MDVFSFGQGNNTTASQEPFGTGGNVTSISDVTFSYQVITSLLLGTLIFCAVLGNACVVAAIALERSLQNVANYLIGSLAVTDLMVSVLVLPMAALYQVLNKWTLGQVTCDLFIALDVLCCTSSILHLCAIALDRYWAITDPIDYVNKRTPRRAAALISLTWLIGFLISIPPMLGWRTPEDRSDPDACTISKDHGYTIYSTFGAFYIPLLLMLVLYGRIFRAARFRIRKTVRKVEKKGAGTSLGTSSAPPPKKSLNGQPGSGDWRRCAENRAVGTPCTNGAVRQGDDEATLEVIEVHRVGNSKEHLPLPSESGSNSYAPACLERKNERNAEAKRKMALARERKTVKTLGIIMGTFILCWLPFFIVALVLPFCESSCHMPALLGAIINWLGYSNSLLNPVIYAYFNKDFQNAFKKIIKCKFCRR
Procedure: Experiment Example 2: Affinity for serotonin 1A receptor
A specific binding of serotonin 1A (5-HT1A) receptor was tested according to the method described in J. Neurochem. 44, 1685 (1985).
A crude synaptosome fraction was separated from hippocampus of 9-10 weeks old Nistar rat, and suspended in 50 mM Tris-HCl buffer (pH 7.4) containing 1 mM manganese chloride for use in the test. The test compound at several concentrations and tritiated 8-hydroxy-2-dipropylaminotctralin (8-OH-DPAT, final concentration 0.2 nM) were added to the synaptosome suspension, and each mixture was reacted at 37° C. for 12 minutes. After the reaction, the reaction mixture was filtered with suction through a Whatman GF/B glass filter. The filter was washed with 50 mM Tris-HCl buffer (pH 7.7), and the radioactivity of the filter was measured by a liquid scintillation counter. Non-specific binding was determined in the presence of 10^-5 M serotonin (5HT). The concentration necessary for 50% inhibition (IC50) was determined on a graph, and inhibition constant (Ki value) was calculated.

[2] = target: T3, serotonin 2 (5-HT2) receptor (Rattus norvegicus, UniProt P14842); assay: Affinity for serotonin 2 receptor ([3H]ketanserin binding, crude synaptosome fraction of hippocampus); parameters: species or system Wistar rat; settings: tritiated ketanserin 0.2 nM, pH 7.7, 37° C., 20 minutes, read-out: binding 5-HT2, inhibition constant (Ki value)
T3 construct: A crude synaptosome fraction was separated from hippocampus; from tissue; host or cells: hippocampus of Wistar rat, crude synaptosome fraction
Procedure: Experiment Example 3: Affinity for serotonin 2 receptor
A specific binding of serotonin 2 (5-HT2) receptor was tested according to the method described in Mol. Pharmacol. 21, 301 (1981).
A crude synaptosome fraction was separated from hippocampus of 9-10 weeks old Wistar rat, and suspended in 50 mM Tris-HCl buffer (pH 7.7) for use in the test. The test compound at several concentrations and tritiated ketanserin (final concentration 0.2 nM) were added to the synaptosome suspension, and each mixture was incubated at 37° C. for 20 minutes. After the incubation, the mixture was filtered with suction through a Whatman GF/B glass filter. The filter was washed with 50 mM Tris-HCl buffer (plt 7.7), and the radioactivity of the filter was measured by a liquid scintillation counter. Non-specific binding was determined in the presence of 10^-5 M mianserin. The concentration necessary for 50% inhibition (IC50) was determined on a graph, and inhibition constant (Ki value) was calculated.

apomorphine = assay: Anti-apomorphine action (mouse); format: in vivo; settings: 1 h before apomorphine, read-out: anti-apomorphine effect ED50
Procedure: The test compound was orally administered to the mice, and 60 minutes later, 0.5 mg/kg of apomorphine hydrochloride was subcutaneously administered. The movement for 20 minutes from immediately after the administration was measured using Balimex (Columbus, USA).

T3 sequence (P14842 whole entry): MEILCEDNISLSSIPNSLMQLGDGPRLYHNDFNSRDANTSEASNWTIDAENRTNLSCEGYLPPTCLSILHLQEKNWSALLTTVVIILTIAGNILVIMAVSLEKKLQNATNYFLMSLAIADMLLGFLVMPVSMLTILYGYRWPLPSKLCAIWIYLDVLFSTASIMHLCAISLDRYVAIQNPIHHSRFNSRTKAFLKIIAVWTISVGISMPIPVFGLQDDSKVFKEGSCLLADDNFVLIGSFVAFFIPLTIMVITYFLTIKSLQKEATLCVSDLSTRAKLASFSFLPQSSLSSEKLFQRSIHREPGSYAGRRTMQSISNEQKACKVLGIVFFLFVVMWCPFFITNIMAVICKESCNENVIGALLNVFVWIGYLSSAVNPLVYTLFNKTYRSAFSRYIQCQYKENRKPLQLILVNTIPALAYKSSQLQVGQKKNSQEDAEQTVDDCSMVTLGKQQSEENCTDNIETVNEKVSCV
T1 sequence (P61169 whole entry): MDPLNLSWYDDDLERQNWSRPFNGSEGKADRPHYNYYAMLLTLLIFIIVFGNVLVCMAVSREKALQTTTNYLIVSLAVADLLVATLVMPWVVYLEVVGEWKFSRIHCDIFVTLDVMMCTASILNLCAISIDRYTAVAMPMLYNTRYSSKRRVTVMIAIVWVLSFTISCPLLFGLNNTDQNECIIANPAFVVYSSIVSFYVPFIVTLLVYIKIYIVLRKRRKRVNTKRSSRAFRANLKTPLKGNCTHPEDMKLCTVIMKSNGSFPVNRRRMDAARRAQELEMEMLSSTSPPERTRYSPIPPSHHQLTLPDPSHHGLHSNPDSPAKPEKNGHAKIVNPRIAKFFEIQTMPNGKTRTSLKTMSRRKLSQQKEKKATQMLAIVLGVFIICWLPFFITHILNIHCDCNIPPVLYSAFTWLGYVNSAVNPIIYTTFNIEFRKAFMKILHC

Compound | death (ddY mice; 100 mg/kg intraperitoneally, 5 male ddY mice) | death (ddY mice; 300 mg/kg orally) | Ki (dopamine 2 (D2) receptor) [nM] | Ki [1] [nM] | Ki [2] [nM] | ED50 (apomorphine; po) [mg/kg] | ED50 (apomorphine; male dd mice, oral, 60 minutes before 0.5 mg/kg s.c. apomorphine hydrochloride, movement for 20 minutes) [mg/kg]
CC(=O)c1ccc(SCCCN2CCN(c3cccc(C)c3C)CC2)s1 [Example 4, 1(3-((5-acetyl-2-thienyl)thio)propyl)-4-(2,3-dimethylphenyl)piperazine] | No death was observed | no death was observed |  |  |  |  | 
CC(=O)c1ccc(SCCCN2CCN(c3nsc4ccccc34)CC2)s1 [Example 21, 3-(4-(3-((5-acctyl-2-thicnyl)thio)propyl)-l-piperadinyl)1,2-benzisothiazole] |  |  | 1.3 | 0.12 | 0.59 | 35 | 
CC(=O)c1ccc(SCCCN2CCC(c3noc4cc(F)ccc34)CC2)s1 [Example 36, 3-(1-(3-((5-acctyl-2-thienyl)thio)propyl)piperidin-4-yl)-6-fluoro-1,2-benzisoxazole] |  |  | 0.61 | 0.75 | 1.3 | 3.4 | 
CC(=O)Nc1ccc(SCCCN2CCC(c3noc4cc(F)ccc34)CC2)s1 [Example 40, 3-(1-(3-((5-acetylamino-2-thienyl)thio)propyl)piperidin-4-yl) -6-fluoro-1,2-benzisoxazole] |  |  | 0.71 | 0.35 | 0.45 | 1 | 
CC(=O)NCc1ccc(SCCCN2CCC(c3noc4cc(F)ccc34)CC2)s1 [Example 93, 3-(1-(3-((5-acetylaminomethyl-2-thienyl)thio)propyl)-piperidin-4-yl)-6-fluoro-1,2-benzisoxazole] |  |  | 0.8 | 26 | 0.79 | 2.9 | 
CC(=O)NCc1ccc(C(=O)CCCN2CCC(c3noc4cc(F)ccc34)CC2)s1 [Example 95, 3-(1-(4-(5-acetylaminomethyl-2-thienyl)-4-oxobutyl)piperidin-4-yl)-6-fluoro-1,2-benzisoxazole] |  |  | 2.5 | 140 | 0.059 | 2.6 | 
CC(=O)NCc1ccc(CCCCN2CCC(c3noc4cc(F)ccc34)CC2)s1 [Example 108, 3-(1-(4-(5-acetylaminomethyl-2-thienyl)butyl)piperidin-4-yl) -6-fluoro-1,2-benzisoxazole] |  |  | 2 | 56 | 2.1 | 0.41 | 
CC(=O)NCc1ccc(CCN2CCC(c3noc4cc(F)ccc34)CC2)s1 [Example 119, 3-(1-(2-(5-acetylaminomethyl-2-thicnyl)ethyl)piperidin-4-yl)-6-fluoro-1,2-benzisoxazole] |  |  | 3.8 | 14 | 0.65 | 0.16 | 
CC(=O)NCc1sc(CCN2CCC(c3noc4cc(F)ccc34)CC2)cc1C [Example 151, 3-(1-(2-(5-acetylaminomethyl-4-methyl-2-thienyl)ethyl)-piperadin-4-yl)-6-fluoro-1,2-benzisoxazole] |  |  | 3.8 | 15 | 0.099 |  | 0.76
CC(=O)NCc1cc(CCN2CCC(c3noc4cc(F)ccc34)CC2)c(C)s1 [Example 155, 3-(1-(2-(5-acetylaminomethyl-2-methyl-3-thienyl)ethyl)-piperidin-4-yl)-6-fluoro-1,2-benzisoxazole] |  |  | 1.4 | > 100 | 0.37 | 1.2 | 
CC(=O)NCCc1ccc(CCN2CCC(c3noc4cc(F)ccc34)CC2)s1 [Example 158, 3-(1-(2-(5-(2-acetylaminoethyl)-2-thienyl)ethyl)piperidin-4-yl) -6-fluoro-1,2-benzisoxazole] |  |  | 0.94 | 16 | 0.13 | 0.14 | 
CC(=O)NCCc1sc(CCN2CCC(c3noc4cc(F)ccc34)CC2)cc1Br [Example 159, 3-(1-(2-(5-(2-acetylaminoethyl)-4-bromo-2-thienyl)ethyl)-piperidin-4-yl) -6-fluoro-1,2-benzisoxazole] |  |  | 0.5 | 12 | 0.047 | 0.53 | 
NCc1ccc(CCCCN2CCC(c3noc4cc(F)ccc34)CC2)s1 [Example 165, 3-(1-(4-(5-aminomethyl-2-thienyl)butyl)piperidin-4-yl)-6-fluoro-1,2-benzisoxazole] |  |  | 0.69 | 1.7 | 1.3 | 0.24 | 

Source: patent US5466691A, “Thiophene compound” (Yoshitomi Pharmaceutical Industries, Ltd., priority 1991, dated 1995)
